Data: patent US9201014B2, “Development of photostable near-IR cyanine dyes for in vivo imaging” (National University of Singapore, priority 2010, dated 2015)

Tests used:
Type in all cases: physicochemical
[1] = Absorbance and fluorescence maximum wavelengths and quantum yields of the CyNA library
Summary of the method: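 Absorption and emission maxima and quantum yields of the 80-member amine-derivatized CyNA library were measured on a plate spectrophotometer.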

[2] = Primary screening of photostability of the CyNA library (time-course fluorescence, 8 h); details: 10 μM in HEPES 100 mM pH 7.4, 2% DMSO
Summary of the method: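 CyNA dyes at 10 μM in 100 mM HEPES pH 7.4 with 2% DMSO irradiated by xenon lamp for 8 h. Fluorescence (ex/em 790-820 nm) read every 10 min; stability given as F8h/Fo.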

[3] = Characterization of the CyNAMLA library (absorbance maximum wavelengths); details: absorbance maximum wavelength of CyNAMLA library compounds
Description: The amine group of 21 was protected using di-tert-butyl dicarbonate then derivatized with 80 different primary amines (for structures, see FIGS. 14A-14D). After acetylation of the newly-introduced amine, the compounds were treated with a solution of TFA-DCM (1:9) to remove the tert-butylcarbamate protecting group. The deprotected amine was then coupled to lipoic acid to yield CyNAMLA derivatives with an average purity of 90% (for HPLC-determined purities, see Table 6).

[4] = Primary screen of SERS intensities of CyNAMLA-functionalized AuNPs (compact Raman scanner); details: for Raman intensity: SERS spectra of CyNAMLA-functionalized AuNPs, excitation at 785 nm, laser power 60 mW
Description: FIG. 15 is a graph of the comparative surface-enhanced Raman spectroscopy (SERS) intensities of members of the CyNAMLA library measured with an excitation wavelength of 785 nm and a laser power of 60 mW in a compact Raman scanner.
The CyNAMLA compounds were adsorbed onto AuNPs having a diameter of approximately 60 nm, and the SERS properties of the resulting CyNAMLA-functionalized AuNPs were evaluated using a compact Raman scanner. Among metal nanoparticles, AuNPs are particularly suitable for in vivo applications due to their low toxicity, adaptability to bioconjugation, and reproducible signal intensity and quantification.

Structure (SMILES)	λabs (max) [3]	Raman intensity [4]	also measured
CCCN1/C(=C/C=C2\CCCC(/C=C/C3=[N+](CCC)c4ccccc4C3(C)C)=C2N(CCc2ccccc2-c2ccccc2)C(C)=O)C(C)(C)c2ccccc21 [CyNA-599]			λabs, absorbance maximum wavelength ([1]; CyNA library): 805 nm; λem, fluorescence maximum wavelength ([1]; CyNA library): 819 nm; φ, quantum yield ([1]; in DMSO, Cardiogreen as standard): 0.07; max RFU, maximum relative fluorescence units [2]: 105.9
CCCN1/C(=C/C=C2\CCCC(/C=C/C3=[N+](CCCNC(=O)CCCCC4CCSS4)c4ccccc4C3(C)C)=C2N(Cc2ccc3c(c2)OCO3)C(C)=O)C(C)(C)c2ccccc21.O=C([O-])C(F)(F)F (centres unmarked) [CyNAMLA-49]	806 nm	2271	
CCCCCCCCCCCCCN(C(C)=O)C1=C(/C=C/C2=[N+](CCCNC(=O)CCCCC3CCSS3)c3ccccc3C2(C)C)CCC/C1=C\C=C1\N(CCC)c2ccccc2C1(C)C.O=C([O-])C(F)(F)F (centres unmarked) [CyNAMLA-55]	805 nm	1125	
CCCN1/C(=C/C=C2\CCCC(/C=C/C3=[N+](CCCNC(=O)CCCCC4CCSS4)c4ccccc4C3(C)C)=C2N(Cc2ccccc2C)C(C)=O)C(C)(C)c2ccccc21.O=C([O-])C(F)(F)F (centres unmarked) [CyNAMLA-101]	803 nm	2102	
CCCN1/C(=C/C=C2\CCCC(/C=C/C3=[N+](CCCNC(=O)CCCCC4CCSS4)c4ccccc4C3(C)C)=C2N(Cc2ccccc2OCC)C(C)=O)C(C)(C)c2ccccc21.O=C([O-])C(F)(F)F (centres unmarked) [CyNAMLA-103]	806 nm	6424	
CCCN1/C(=C/C=C2\CCCC(/C=C/C3=[N+](CCCNC(=O)CCCCC4CCSS4)c4ccccc4C3(C)C)=C2N(C(C)=O)C2CCN(Cc3ccccc3)CC2)C(C)(C)c2ccccc21.O=C([O-])C(F)(F)F (centres unmarked) [CyNAMLA-107]	805 nm	2397	
CCCN1/C(=C/C=C2\CCCC(/C=C/C3=[N+](CCCNC(=O)CCCCC4CCSS4)c4ccccc4C3(C)C)=C2N(Cc2cccc(OC)c2OC)C(C)=O)C(C)(C)c2ccccc21.O=C([O-])C(F)(F)F (centres unmarked) [CyNAMLA-124]	804 nm	2201	
CCCN1/C(=C/C=C2\CCCC(/C=C/C3=[N+](CCCNC(=O)CCCCC4CCSS4)c4ccccc4C3(C)C)=C2N(C(C)=O)C2CCCCC2)C(C)(C)c2ccccc21.O=C([O-])C(F)(F)F (centres unmarked) [CyNAMLA-164]	803 nm	4777	
CCCN1/C(=C/C=C2\CCCC(/C=C/C3=[N+](CCCNC(=O)CCCCC4CCSS4)c4ccccc4C3(C)C)=C2N(C(C)=O)C2CCCC2)C(C)(C)c2ccccc21.O=C([O-])C(F)(F)F (centres unmarked) [CyNAMLA-180]	804 nm	8236	
CCCN1/C(=C/C=C2\CCCC(/C=C/C3=[N+](CCCNC(=O)CCCCC4CCSS4)c4ccccc4C3(C)C)=C2N(Cc2ccc(OC)cc2OC)C(C)=O)C(C)(C)c2ccccc21.O=C([O-])C(F)(F)F (centres unmarked) [CyNAMLA-181]	804 nm	2109	
CCCN1/C(=C/C=C2\CCCC(/C=C/C3=[N+](CCCNC(=O)CCCCC4CCSS4)c4ccccc4C3(C)C)=C2N(CCc2cccc(OC)c2OC)C(C)=O)C(C)(C)c2ccccc21.O=C([O-])C(F)(F)F (centres unmarked) [CyNAMLA-184]	803 nm	24133	
CCCC(C)N(C(C)=O)C1=C(/C=C/C2=[N+](CCCNC(=O)CCCCC3CCSS3)c3ccccc3C2(C)C)CCC/C1=C\C=C1\N(CCC)c2ccccc2C1(C)C.O=C([O-])C(F)(F)F (centres unmarked) [CyNAMLA-185]	805 nm	4603	
CCCN1/C(=C/C=C2\CCCC(/C=C/C3=[N+](CCCNC(=O)CCCCC4CCSS4)c4ccccc4C3(C)C)=C2N(Cc2ccc(F)cc2)C(C)=O)C(C)(C)c2ccccc21.O=C([O-])C(F)(F)F (centres unmarked) [CyNAMLA-218]	804 nm	1922	
CCCCC(CC)CN(C(C)=O)C1=C(/C=C/C2=[N+](CCCNC(=O)CCCCC3CCSS3)c3ccccc3C2(C)C)CCC/C1=C\C=C1\N(CCC)c2ccccc2C1(C)C.O=C([O-])C(F)(F)F (centres unmarked) [CyNAMLA-230]	804 nm	4341	
CCCN1/C(=C/C=C2\CCCC(/C=C/C3=[N+](CCCNC(=O)CCCCC4CCSS4)c4ccccc4C3(C)C)=C2N(Cc2cc(OC)cc(OC)c2)C(C)=O)C(C)(C)c2ccccc21.O=C([O-])C(F)(F)F (centres unmarked) [CyNAMLA-262]	805 nm	27810	SERS intensity compared to DTTC, primary screen ([4]; on AuNPs, 785 nm, 60 mW): exceeded the signal of DTTC
CCCN1/C(=C/C=C2\CCCC(/C=C/C3=[N+](CCCNC(=O)CCCCC4CCSS4)c4ccccc4C3(C)C)=C2N(CCc2ccc(OC)c(OC)c2)C(C)=O)C(C)(C)c2ccccc21.O=C([O-])C(F)(F)F (centres unmarked) [CyNAMLA-266]	806 nm	3013	
CCCN1/C(=C/C=C2\CCCC(/C=C/C3=[N+](CCCNC(=O)CCCCC4CCSS4)c4ccccc4C3(C)C)=C2N(CCN2CCCCC2)C(C)=O)C(C)(C)c2ccccc21.O=C([O-])C(F)(F)F (centres unmarked) [CyNAMLA-272]	805 nm	1986	
CCCN1/C(=C/C=C2\CCCC(/C=C/C3=[N+](CCCNC(=O)CCCCC4CCSS4)c4ccccc4C3(C)C)=C2N(CCCOC(C)C)C(C)=O)C(C)(C)c2ccccc21.O=C([O-])C(F)(F)F (centres unmarked) [CyNAMLA-274]	806 nm	6417	
CCCN1/C(=C/C=C2\CCCC(/C=C/C3=[N+](CCCNC(=O)CCCCC4CCSS4)c4ccccc4C3(C)C)=C2N(C(C)=O)C(C)CCc2ccccc2)C(C)(C)c2ccccc21.O=C([O-])C(F)(F)F (centres unmarked) [CyNAMLA-275]	804 nm	1408	
CCCCCCCN(C(C)=O)C1=C(/C=C/C2=[N+](CCCNC(=O)CCCCC3CCSS3)c3ccccc3C2(C)C)CCC/C1=C\C=C1\N(CCC)c2ccccc2C1(C)C.O=C([O-])C(F)(F)F (centres unmarked) [CyNAMLA-277]	804 nm	2046	
CCCN1/C(=C/C=C2\CCCC(/C=C/C3=[N+](CCCNC(=O)CCCCC4CCSS4)c4ccccc4C3(C)C)=C2N(Cc2ccc(OC)c(OC)c2)C(C)=O)C(C)(C)c2ccccc21.O=C([O-])C(F)(F)F (centres unmarked) [CyNAMLA-319]	805 nm	2850	
CCCN1/C(=C/C=C2\CCCC(/C=C/C3=[N+](CCCNC(=O)CCCCC4CCSS4)c4ccccc4C3(C)C)=C2N(Cc2c(OC)cc(OC)cc2OC)C(C)=O)C(C)(C)c2ccccc21.O=C([O-])C(F)(F)F (centres unmarked) [CyNAMLA-336]	805 nm	2548	
CCCN1/C(=C/C=C2\CCCC(/C=C/C3=[N+](CCCNC(=O)CCCCC4CCSS4)c4ccccc4C3(C)C)=C2N(Cc2cccc(Br)c2)C(C)=O)C(C)(C)c2ccccc21.O=C([O-])C(F)(F)F (centres unmarked) [CyNAMLA-341]	804 nm	1071	
CCCN1/C(=C/C=C2\CCCC(/C=C/C3=[N+](CCCNC(=O)CCCCC4CCSS4)c4ccccc4C3(C)C)=C2N(Cc2cc(OC)c(OC)c(OC)c2)C(C)=O)C(C)(C)c2ccccc21.O=C([O-])C(F)(F)F (centres unmarked) [CyNAMLA-356]	806 nm	2333	
CCCN1/C(=C/C=C2\CCCC(/C=C/C3=[N+](CCCNC(=O)CCCCC4CCSS4)c4ccccc4C3(C)C)=C2N(Cc2ccc(OC)cc2OC)C(C)=O)C(C)(C)c2ccccc21.O=C([O-])C(F)(F)F (centres unmarked) [CyNAMLA-358]	804 nm	1121	
CCCCN(C(C)=O)C1=C(/C=C/C2=[N+](CCCNC(=O)CCCCC3CCSS3)c3ccccc3C2(C)C)CCC/C1=C\C=C1\N(CCC)c2ccccc2C1(C)C.O=C([O-])C(F)(F)F (centres unmarked) [CyNAMLA-373]	804 nm	2487	
CCCN1/C(=C/C=C2\CCCC(/C=C/C3=[N+](CCCNC(=O)CCCCC4CCSS4)c4ccccc4C3(C)C)=C2N(CC2CCCCC2)C(C)=O)C(C)(C)c2ccccc21.O=C([O-])C(F)(F)F (centres unmarked) [CyNAMLA-382]	804 nm	7947	
CCCN1/C(=C/C=C2\CCCC(/C=C/C3=[N+](CCCNC(=O)CCCCC4CCSS4)c4ccccc4C3(C)C)=C2N(Cc2cccc(OC)c2)C(C)=O)C(C)(C)c2ccccc21.O=C([O-])C(F)(F)F (centres unmarked) [CyNAMLA-387]	804 nm	3910	
